Drawing on patent US9815850B2, “Compounds, compositions and methods” (Denali Therapeutics Inc., priority 2016, dated 2017), this text covers IC50 for 30 molecules.

SMILES strings stand for the structures.

Sequence of GST-hRIPK1 (8-327) (Q13546 8-327): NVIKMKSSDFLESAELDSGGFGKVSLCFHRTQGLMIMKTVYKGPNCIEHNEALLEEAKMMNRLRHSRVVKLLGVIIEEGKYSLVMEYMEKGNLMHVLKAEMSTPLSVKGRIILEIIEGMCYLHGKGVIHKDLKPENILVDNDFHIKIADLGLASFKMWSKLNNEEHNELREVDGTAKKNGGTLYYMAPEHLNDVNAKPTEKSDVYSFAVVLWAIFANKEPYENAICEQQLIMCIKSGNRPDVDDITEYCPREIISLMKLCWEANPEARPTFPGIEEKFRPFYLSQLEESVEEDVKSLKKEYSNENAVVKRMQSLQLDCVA

The test deals with GST-hRIPK1 (8-327) (Homo sapiens (Human), UniProt Q13546). Nature of the test: Fluorescent Polarization Binding (FP Binding) assay. The note with it: 10 nM GST-hRIPK1 (8-327), 5 nM fluorescent labeled ligand; read-out: FP IC50. How it is done:
Fluorescent Polarization Binding (FP Binding) assay (Berger S. B. et al. […] Maki J. L. et al. […] Test Compounds were serially diluted in DMSO at 100 fold final concentrations in the assay (1% DMSO final). […] For negative control the enzyme addition was replaced by assay buffer only. After addition of 5 μL of fluorescent labeled ligand at twice the final concentrations in assay buffer, the plate was incubated at RT for 30 min.
A word on the IC50: it is the point on the concentration scale where inhibition reaches its midpoint. Consider `CN1C(=O)[C@@H](NC(=O)c2cc(Cc3ccccc3)[nH]n2)[C@H]2C[C@H]2c2cccnc21` [Example 80A, 5-benzyl-N-((1aS,2S,8bR)-4-methyl-3-oxo-1,1a,2,3,4,8b-hexahydrocyclopropa[d]pyrido[2,3-b]azepin-2-yl)-1H-pyrazole-3-carboxamide], for which the IC50 lay in the range of 0.0001 to 1 µM.
Consider `CN1C(=O)[C@H](NC(=O)c2cc(Cc3ccccc3)[nH]n2)[C@@H]2C[C@@H]2c2cccnc21` [Example 80B, 5-benzyl-N-((1aR,2R,8bS)-4-methyl-3-oxo-1,1a,2,3,4,8b-hexahydrocyclopropa[d]pyrido[2,3-b]azepin-2-yl)-1H-pyrazole-3-carboxamide], for which the half-inhibitory concentration (IC50) was above 3 µM.
Under `CN1C(=O)[C@@H](NC(=O)c2cc(Cc3ccccc3)on2)[C@H]2C[C@H]2c2cccnc21` [Example 81A, 5-benzyl-N-((1aS,2S,8bR)-4-methyl-3-oxo-1,1a,2,3,4,8b-hexahydrocyclopropa[d]pyrido[2,3-b]azepin-2-yl)isoxazole-3-carboxamide] stands 0.0001 to 1 µM; under `CN1C(=O)[C@H](NC(=O)c2cc(Cc3ccccc3)on2)[C@@H]2C[C@@H]2c2cccnc21` [Example 81B, 5-benzyl-N-((1aR,2R,8bS)-4-methyl-3-oxo-1,1a,2,3,4,8b-hexahydrocyclopropa[d]pyrido[2,3-b]azepin-2-yl)isoxazole-3-carboxamide], above 3 µM; under `CN1C(=O)[C@@H](NC(=O)c2nn(Cc3ccccc3)cc2F)[C@H]2C[C@H]2c2cccnc21` [Example 82A, 1-benzyl-4-fluoro-N-((1aS,2S,8bR)-4-methyl-3-oxo-1,1a,2,3,4,8b-hexahydrocyclopropa[d]pyrido[2,3-b]azepin-2-yl)-1H-pyrazole-3-carboxamide], 0.0001 to 1 µM.
On to `CN1C(=O)[C@H](NC(=O)c2nn(Cc3ccccc3)cc2F)[C@@H]2C[C@@H]2c2cccnc21` [Example 82B, 1-benzyl-4-fluoro-N-((1aR,2R,8bS)-4-methyl-3-oxo-1,1a,2,3,4,8b-hexahydrocyclopropa[d]pyrido[2,3-b]azepin-2-yl)-1H-pyrazole-3-carboxamide], for which the IC50 is above 3 µM.
For the molecule `O=C(N[C@H]1C(=O)Nc2c(F)cc(F)cc2[C@H]2C[C@H]21)c1nnc(Cc2ccccc2)[nH]1` [Example 83B, 5-benzyl-N-((1aR,2R,8bS)-5,7-difluoro-3-oxo-1,1a,2,3,4,8b-hexahydrobenzo[b]cyclopropa[d]azepin-2-yl)-4H-1,2,4-triazole-3-carboxamide], the IC50 lay within 1 to 10 µM.
On to `CN1C(=O)[C@@H](NC(=O)c2nc3cccc(-c4ccccc4)c3s2)COc2ccccc21` [Example 84, (S)—N-(5-methyl-4-oxo-2,3,4,5-tetrahydrobenzo[b][1,4]oxazepin-3-yl)-7-phenylbenzo[d]thiazole-2-carboxamide], for which the IC50 is 0.0001 to 1 µM.
Next, `CN1C(=O)[C@@H](NC(=O)c2nnc(Cc3ccccc3)s2)COc2cccnc21` [Example 85, (S)-5-benzyl-N-(5-methyl-4-oxo-2,3,4,5-tetrahydropyrido[3,2-b][1,4]oxazepin-3-yl)-1,3,4-thiadiazole-2-carboxamide]: 0.0001 to 1 µM.
Turning to `CN1C(=O)[C@@H](NC(=O)c2ncc(Cc3ccccc3)s2)COc2cccnc21` [Example 86, (S)-5-benzyl-N-(5-methyl-4-oxo-2,3,4,5-tetrahydropyrido[3,2-b][1,4]oxazepin-3-yl)thiazole-2-carboxamide], the IC50 is 0.0001 to 1 µM.
Next, `CN1C(=O)[C@@H](NC(=O)c2cn(C3(c4ccccc4)CC3)nn2)COc2ccccc21` [Example 87, (S)—N-(5-methyl-4-oxo-2,3,4,5-tetrahydrobenzo[b][1,4]oxazepin-3-yl)-1-(1-phenylcyclopropyl)-1H-1,2,3-triazole-4-carboxamide]: 0.0001 to 1 µM.
Take `CN1C(=O)[C@@H](NC(=O)c2cnc(C3(c4ccccc4)CC3)[nH]2)COc2ccccc21` [Example 88, (S)—N-(5-methyl-4-oxo-2,3,4,5-tetrahydrobenzo[b][1,4]oxazepin-3-yl)-2-(1-phenylcyclopropyl)-1H-imidazole-5-carboxamide]: the IC50 is above 3 µM.
In the case of `O=C(N[C@H]1C(=O)Nc2c(F)cc(F)cc2[C@H]2C[C@H]21)c1nnc(Cc2ccccc2)o1` [Example 89A, 5-benzyl-N-((1aR,2R,8bS)-5,7-difluoro-3-oxo-1,1a,2,3,4,8b-hexahydrobenzo[b]cyclopropa[d]azepin-2-yl)-1,3,4-oxadiazole-2-carboxamide], the IC50 was 1 to 10 µM.
Under `O=C(N[C@@H]1C(=O)Nc2c(F)cc(F)cc2[C@@H]2C[C@H]12)c1nnc(Cc2ccccc2)o1` [Example 89B, 5-benzyl-N-((1aS,2S,8bR)-5,7-difluoro-3-oxo-1,1a,2,3,4,8b-hexahydrobenzo[b]cyclopropa[d]azepin-2-yl)-1,3,4-oxadiazole-2-carboxamide] stands 0.0001 to 1 µM.
As to `O=C(N[C@H]1C(=O)Nc2c(F)cc(F)cc2[C@H]2C[C@H]21)c1cn(Cc2ccccc2)nn1` [Example 90A, 1-benzyl-N-((1aR,2R,8bS)-5,7-difluoro-3-oxo-1,1a,2,3,4,8b-hexahydrobenzo[b]cyclopropa[d]azepin-2-yl)-1H-1,2,3-triazole-4-carboxamide], the IC50 lay in the range of 1 to 10 µM.
`O=C(N[C@@H]1C(=O)Nc2c(F)cc(F)cc2[C@@H]2C[C@H]12)c1cn(Cc2ccccc2)nn1` [Example 90B, 1-benzyl-N-((1aS,2S,8bR)-5,7-difluoro-3-oxo-1,1a,2,3,4,8b-hexahydrobenzo[b]cyclopropa[d]azepin-2-yl)-1H-1,2,3-triazole-4-carboxamide]: the IC50 was in the range of 0.0001 to 1 µM.
Consider `O=C(N[C@H]1COc2cccnc2NC1=O)c1cc(C2(c3ccccc3)CC2)[nH]n1` [Example 91, (S)—N-(4-oxo-2,3,4,5-tetrahydropyrido[3,2-b][1,4]oxazepin-3-yl)-5-(1-phenylcyclopropyl)-1H-pyrazole-3-carboxamide], for which the IC50 lay in the range of 0.0001 to 1 µM.
Take `[2H]C([2H])([2H])N1C(=O)[C@@H](NC(=O)c2cc(C3(n4nccn4)CC3)on2)CCc2cccnc21` [Example 207]: the IC50 is above 3 µM.
On to `Cc1nc(C(=O)N[C@@H]2C(=O)N(C)c3nccnc3[C@@H]3C[C@H]23)cn1Cc1ccccc1` [Example 208], for which the IC50 is 0.0001 to 1 µM.
Next, `CN1C(=O)[C@@H](NC(=O)c2nn(Cc3cocn3)cc2F)COc2cccnc21` [Example 209, (S)-4-fluoro-N-(5-methyl-4-oxo-2,3,4,5-tetrahydropyrido[3,2-b][1,4]oxazepin-3-yl)-1-(oxazol-4-ylmethyl)-1H-pyrazole-3-carboxamide]: 0.0001 to 1 µM.
Under `CN1C(=O)[C@@H](NC(=O)c2ncc(Cc3ccccn3)s2)COc2cccnc21` [Example 213, (S)—N-(5-methyl-4-oxo-2,3,4,5-tetrahydropyrido[3,2-b][1,4]oxazepin-3-yl)-5-(pyridin-2-ylmethyl)thiazole-2-carboxamide] stands 0.0001 to 1 µM.
Under `CN1C(=O)[C@@H](NC(=O)c2nn(Cc3ccc(F)cn3)cc2F)COc2ccccc21` [Example 214, (S)-4-fluoro-1-((5-fluoropyridin-2-yl)methyl)-N-(5-methyl-4-oxo-2,3,4,5-tetrahydrobenzo[b][1,4]oxazepin-3-yl)-1H-pyrazole-3-carboxamide] stands 0.0001 to 1 µM; under `CN1C(=O)[C@@H](NC(=O)c2noc(Cc3ccccc3)n2)COc2cccnc21` [Example 215, (S)-5-benzyl-N-(5-methyl-4-oxo-2,3,4,5-tetrahydropyrido[3,2-b][1,4]oxazepin-3-yl)-1,2,4-oxadiazole-3-carboxamide], 0.0001 to 1 µM.
For the molecule `CN1C(=O)[C@@H](NC(=O)c2nn(Cc3ccc(Cl)cn3)cc2F)COc2ccccc21` [Example 216, (S)-1-((5-chloropyridin-2-yl)methyl)-4-fluoro-N-(5-methyl-4-oxo-2,3,4,5-tetrahydrobenzo[b][1,4]oxazepin-3-yl)-1H-pyrazole-3-carboxamide], the IC50 lay within 0.0001 to 1 µM.
Under `C[C@H]1Oc2cccnc2N(C)C(=O)[C@H]1NC(=O)c1nnc(Cc2ccccc2)s1` [Example 217, 5-benzyl-N-((2R,3S)-2,5-dimethyl-4-oxo-2,3,4,5-tetrahydropyrido[3,2-b][1,4]oxazepin-3-yl)-1,3,4-thiadiazole-2-carboxamide] stands 0.0001 to 1 µM; under `CN1C(=O)[C@@H](NC(=O)c2nnc(Cc3ccccc3)[nH]2)[C@H]2C[C@H]2c2cc(C#N)cnc21` [Example 218, 5-benzyl-N-((1aS,2S,8bR)-7-cyano-4-methyl-3-oxo-1,1a,2,3,4,8b-hexahydrocyclopropa[d]pyrido[2,3-b]azepin-2-yl)-4H-1,2,4-triazole-3-carboxamide], 0.0001 to 1 µM.
Next, `CN1C(=O)[C@@H](NC(=O)c2ncc(Cc3cccc(C#N)c3)s2)CCc2cccnc21` [Example 219, (S)-5-(3-cyanobenzyl)-N-(9-methyl-8-oxo-6,7,8,9-tetrahydro-5H-pyrido[2,3-b]azepin-7-yl)thiazole-2-carboxamide]: 0.0001 to 1 µM.
As for `COc1cccc(Cn2cc(F)c(C(=O)N[C@H]3COc4ccccc4N(C)C3=O)n2)n1` [Example 220, (S)-4-fluoro-1-((6-methoxypyridin-2-yl)methyl)-N-(5-methyl-4-oxo-2,3,4,5-tetrahydrobenzo[b][1,4]oxazepin-3-yl)-1H-pyrazole-3-carboxamide], the IC50 was 0.0001 to 1 µM.
Regarding `C[C@H]1Oc2cccnc2N(C)C(=O)[C@H]1NC(=O)c1nnc(C(F)(F)c2ccccc2)o1` [Example 221, 5-(difluoro(phenyl)methyl)-N-((2R,3S)-2,5-dimethyl-4-oxo-2,3,4,5-tetrahydropyrido[3,2-b][1,4]oxazepin-3-yl)-1,3,4-oxadiazole-2-carboxamide], the IC50 is 0.0001 to 1 µM.
Regarding `C[C@H]1Oc2cccnc2N(C)C(=O)[C@H]1NC(=O)c1noc(Cc2ccccc2)n1` [Example 222, 5-benzyl-N-((2R,3S)-2,5-dimethyl-4-oxo-2,3,4,5-tetrahydropyrido[3,2-b][1,4]oxazepin-3-yl)-1,2,4-oxadiazole-3-carboxamide], the IC50 lay in the range of 0.0001 to 1 µM.
